Measurements taken from the supplement of paper PMC3974653.
Counter-ions that a name gives are not always drawn.

Test system: MTT (mouse pheochromocytoma)
Experiment: IC50 of cell viability (ATP content)
Settings: (24 or 48 h)
Outline: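 Cells of the MTT mouse pheochromocytoma line, 5 µl per well at 200,000 cells/ml, were grown overnight at 37°C, 5% CO2 in white 1536-well plates with DMEM, 5% FBS and 1% horse serum. Pintool transfer then delivered 23 nl of library compound in DMSO, giving 8 final concentrations from 0.5 nM to 46 µM, for an exposure of 24 or 48 hrs. Luminescence from CellTiter-Glo was read after 15 minutes and referenced to positive-control wells (100%) and DMSO wells (0%). IC50 was calculated with a four-parameter logistic fit.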

Row | SMILES | IC50 of cell viability [µM]
1 | CCCCCCCCCCCCOCCCN [LAURIXAMINUM] | > 46
2 | COc1ccccc1N1CCN(CCCC(=O)c2ccc(F)cc2)CC1 [FLUANISONUM] | > 46
3 | COC1=CC=C(C=C1O)C/2=C/C(=O)C3=C(O)C=C(O[C@H]4OC(COC5OC(C)C(O)C(O)[C@H]5O)C(O)C(O)C4O)C=C3O2 (stereo not given in full) [DIOSMIN] | > 46
4 | C/C=C(\C(=C\C)c1ccc(O)cc1)c1ccc(O)cc1 [Dienestrol] | > 46
5 | O=C1NC(=O)C(c2ccccc2)(c2ccccc2)N1 [PHENYTOIN] | > 46
6 | CC(=O)OCC(=O)[C@@]1(O)CCC2C3CCC/4=C/C(=O)/C=C\C4(C)C3C(O)C[C@@]12C (stereo not given in full) [PREDNISOLONE ACETATE] | > 46
7 | O=C1OC(c2ccc(O)cc2)(c2ccc(O)cc2)c2ccccc21 [Phenolphthalein] | > 46
8 | CCCOC(=O)c1ccc(N)cc1 [Risocaine] | > 46
9 | CC[N+](C)(CC)CCOC(=O)C1c2ccccc2Oc2ccccc21 [Methantheline bromide] | > 46
10 | CCN(CC)CCCC(C)Nc1cc(/C=C/c2ccccc2Cl)nc2cc(Cl)ccc12 (stereo not given) [AMINOQUINOLUM] | > 46
11 | CN1C(=O)OC(C)(C)C1=O [Trimethadione] | > 46
12 | CC1(C)NC(=O)N(c2ccc([N+](=O)[O-])c(C(F)(F)F)c2)C1=O [Nilutamide] | > 46
13 | COc1cc(C(=S)N2CCOCC2)ccc1O [Vanitiolida] | > 46
14 | CCOc1ccc(N[S+](=O)([O-])c2ccc(N)cc2)nn1 [Sulfaethoxypyridazine] | > 46
15 | OC(COC1=CC=CC2=C1C(=O)\C=C(/O2)C(O)=O)COC3=CC=CC4=C3C(=O)\C=C(/O4)C(O)=O [Cromolyn sodium] | > 46
16 | CN1CCCC(CN2c3ccccc3Sc3ccccc32)C1 (stereo not given) [Pecazina] | > 46
17 | COc1ccc2c(C(=S)N(C)CC(=O)O)cccc2c1C(F)(F)F [Tolrestat] | > 46
18 | CCCCCCCC/C=C\CCCCCCCC(=O)NCc1ccc(O)c(OC)c1 [Olvanil] | > 46
19 | CC(C)=CCN1CC[C@@]2(C)c3cc(O)ccc3C[C@@H]1C2C (single isomer, unassigned; (-)) [(-)-Pentazocine] | > 46
20 | O=C(O)Cc1ccc(CCN[S+](=O)([O-])c2ccc(Cl)cc2)cc1 [DALTROBANUM] | > 46

Row | SMILES | IC50 of cell viability [µM]
21 | CN\1C(=O)C(=C(\N=C1C(C)(C)NC(=O)C2=NN=C(C)O2)C(=O)NCC3=CC=C(F)C=C3)/O [Raltegravir] | > 46
22 | CO[C@H]1C[C@@H]2CC[C@@H](C)[C@@](O)(O2)C(=O)C(=O)N2CCCC[C@H]2C(=O)O[C@H]([C@H](C)C[C@@H]2CC[C@@H](OC(=O)C(C)(CO)CO)[C@H](OC)C2)CC(=O)[C@H](C)C=C(C)[C@@H](O)[C@@H](OC)C(=O)[C@H](C)C[C@H](C)/C=C/C=C/C=C1C [TEMSIROLIMUS] | > 46
23 | CN1CCN(CCCN2c3ccccc3Sc3ccc(Cl)cc32)CC1 [Prochlorperazine dimaleate] | > 46
24 | O=C(CCN1CCN(CCO)CC1)N1c2ccccc2Sc2ccc(C(F)(F)F)cc21 [Ftorpropazine] | > 46
25 | c1ccc2ccccc2c1 [Naphthalene] | > 46
26 | C[C@H]1C[C@H]2[C@@H]3CC[C@](O)(C(=O)COC(=O)CCC(O)=O)[C@@]3(C)C[C@H](O)[C@@H]2[C@@]\4(C)/C=C\C(=O)\C=C14 [6a-Methylprednisolone 21-hemisuccinate sodium salt] | > 46
27 | CC(O)CN(CCN(CC(C)O)CC(C)O)CC(C)O (stereo not given) [EDETOLUM] | > 46
28 | COC/1=C(/N2[C@H](SC1)[C@H](NC(=O)C(N)C/3\C=C/C/C=C3)C2=O)C(O)=O (stereo not given in full) [Cefradoxil] | > 46
29 | NC(=O)[C@H]1O[C@@H](O)[C@H](O)[C@@H](O)[C@@H]1O [GLUCURONAMIDE] | > 46
30 | COc1cc([C@H]2c3cc4c(cc3[C@@H](O[C@@H]3O[C@H]5CO[C@@H](C)O[C@@H]5[C@@H](O)[C@H]3O)[C@@H]3COC(=O)[C@H]23)OCO4)cc(OC)c1O [Etoposide] | > 46
31 | COc1ccc2c(c1)N(C[C@@H](C)CN(C)C)c1ccccc1S2 [Methotrimeprazine maleat salt] | > 46
32 | C=C(C)[C@@H]1C2OC(=O)C1[C@]1(O)C[C@H]3O[C@]34C(=O)O[C@H]2[C@]14C.CC(C)(O)[C@@H]1C2OC(=O)[C@@H]1[C@]1(O)C[C@H]3O[C@]34C(=O)O[C@H]2[C@]14C [Picrotoxin] | > 46
33 | NC(=S)N/N=C/c1cccnc1 [Nicothiazone] | > 46
34 | NC1CCN(c2cccc(Cl)n2)CC1 | > 46
35 | C=C[C@]1(C)C[C@@H](OC(=O)CO)[C@]2(C)C(C)CC[C@]3(CCC(=O)[C@H]32)[C@@H](C)[C@@H]1O (stereo not given in full) [Pleuromutilin] | > 46
36 | CC1=C(C(=O)O)N2C(=O)[C@@H](NC(=O)[C@H](N)C3=CCC=CC3)[C@H]2SC1 [Cephradine] | > 46
37 | C[N+]1(C)[C@@H]2C[C@H](OC(=O)[C@@H](CO)c3ccccc3)C[C@@H]1[C@H]1O[C@H]12 [Proscomide] | > 46
38 | CN1CCN(CC(=O)N2c3ccccc3C(=O)Nc3cccnc32)CC1 [PIRENZEPINE] | > 46
39 | C[C@H]1C[C@H]2[C@@H]3C[C@H](F)C/4=C/C(=O)/C=C\[C@]4(C)[C@@]3(F)[C@@H](O)C[C@]2(C)[C@@]1(OC(C)=O)C(=O)COC(C)=O [Diflorasone diacetate] | > 46
40 | CCC1OC(=O)C(C)[C@@H](O[C@H]2C[C@@](C)(OC)C(O)C(C)O2)C(C)[C@@H](O[C@@H]2OC(C)CC(N(C)C)C2O)[C@@](C)(O)CC(C)C(=O)[C@@H](C)C(O)[C@]1(C)O (stereo not given in full) [ERYTHROMYCIN] | > 46

Row | SMILES | IC50 of cell viability [µM]
41 | CO[C@@]1(NC(=O)[C@@H]2S\C(S2)=C(\C(N)=O)C(O)=O)[C@@H]3SC\C(=C(/N3C1=O)C(O)=O)CSC4=NN=N[N]4C (stereo not given in full) [Cefotetan] | > 46
42 | COC(=O)\C1=C(/C)N\C(=C(/C1C2=CC=CC(=C2)[N+]([O-])=O)C(=O)OCCN(C)CC3=CC=CC=C3)C (stereo not given) [NICARDIPINE] | > 46
43 | CC[N+](CC)(CCNC(=O)C(=O)NCC[N+](CC)(CC)Cc1ccccc1Cl)Cc1ccccc1Cl [AMBENONIUM] | > 46
44 | CC(C)=CC1C(C(=O)OCc2coc(Cc3ccccc3)c2)C1(C)C (stereo not given) [BIORESMETHRINUM] | > 46
45 | O=C(O[C@H]1CN2CCC1CC2)N1CCc2ccccc2[C@@H]1c1ccccc1 [SOLIFENACIN SUCCINATE] | > 46
46 | Clc1ccc([C@H](Cn2ccnc2)OCc2csc3c(Cl)cccc23)c(Cl)c1 [Sertaconazole nitrate] | > 46
47 | COc1cc2ncnc(Nc3ccc(F)c(Cl)c3)c2cc1OCCCN1CCOCC1 [Gefitinib] | > 46
48 | O=C1N=C2SCCN2C(=O)C1Cc1ccc(Cl)cc1 (stereo not given) [NUCLOMEDONUM] | > 46
49 | COc1cc(C(=O)N2CCCCCCC2)cc(OC)c1OC [TROCIMINUM] | > 46
50 | CNC[C@H](O)[C@@H](O)[C@H](O)[C@H](O)CO [Meglumine] | > 46
51 | CO/N=C(\C(=O)N[C@@H]1C(=O)N2C(C(=O)[O-])=C(C[N+]3(C)CCCC3)CS[C@@H]12)c1csc(N)n1.Cl.O [Cefepime hydrochloride] | > 46
52 | COc1ccc(CC(C)NCC(O)c2ccc(O)c(NC=O)c2)cc1 (stereo not given) [ARFORMOTEROL TARTRATE] | > 46
53 | N[C@@H](CSCCCO)C(=O)O [FUDOSTEINE] | > 46
54 | c1ccc2c(c1)Nc1ccccc1S2 [Phenothiazine] | > 46
55 | CC(C)NC[C@@H](O)COc1cccc2ccccc12 [R-(+)-PROPRANOLOL] | > 46
56 | OC1OC[C@@H](O)[C@H](O)[C@@H]1O (stereo not given in full) [Xylose] | > 46
57 | CC(=O)O[C@H]1C[C@@H]2CC[C@@H]3[C@H](CC[C@@]4(C)[C@H]3C[C@H]([N+]3(C)CCCCC3)[C@@H]4OC(C)=O)[C@@]2(C)C[C@@H]1N1CCCCC1 [VECURONIUM BROMIDE] | > 46
58 | CC12CCC3C(CC\C4=C(/O)C(=O)CCC34C)C1CCC2=O (stereo not given) [4-Androsten-4-ol-3,17-dione] | > 46
59 | O=C([O-])c1ccc(NC(=O)[C@H](Cc2ccc(O)cc2)NC(=O)c2ccccc2)cc1 [Bentiromide] | > 46
60 | CCC(Cc1c(I)cc(I)c(O)c1I)C(=O)O (stereo not given) [Acide iophenoique] | > 46
